Measurements: the CheMixHub viscosity set
± gives the uncertainty stated by the source.

Assay: xn = mol fraction of the nth substance listed

COCC(C)O (configuration not stated) + CCO
viscosity [mPa·s], 101.33 kPa
Details	298.15 K	308.15 K	318.15 K
x1 = 0.0501	1.128 ± 0.018	0.933 ± 0.015	0.779 ± 0.013
x1 = 0.1	1.174 ± 0.018	0.964 ± 0.015	0.801 ± 0.013
x1 = 0.15	1.215 ± 0.019	0.994 ± 0.016	0.822 ± 0.013
x1 = 0.2	1.253 ± 0.019	1.025 ± 0.016	0.846 ± 0.014
x1 = 0.25	1.297 ± 0.02	1.055 ± 0.017	0.866 ± 0.014
x1 = 0.3003	1.333 ± 0.021	1.081 ± 0.017	0.887 ± 0.014
x1 = 0.35	1.369 ± 0.021	1.111 ± 0.018	0.909 ± 0.015
x1 = 0.3999	1.405 ± 0.022	1.138 ± 0.018	0.928 ± 0.015
x1 = 0.45	1.44 ± 0.022	1.163 ± 0.018	0.947 ± 0.015
x1 = 0.5	1.477 ± 0.023	1.188 ± 0.019	0.964 ± 0.015
x1 = 0.5498	1.508 ± 0.023	1.211 ± 0.019	0.979 ± 0.016
x1 = 0.5998	1.537 ± 0.023	1.23 ± 0.019	0.991 ± 0.016
x1 = 0.6498	1.564 ± 0.024	1.245 ± 0.019	1.004 ± 0.016
x1 = 0.7	1.589 ± 0.024	1.263 ± 0.02	1.017 ± 0.016
x1 = 0.75	1.61 ± 0.024	1.275 ± 0.02	1.029 ± 0.016
x1 = 0.8002	1.629 ± 0.025	1.289 ± 0.02	1.038 ± 0.016
x1 = 0.8498	1.647 ± 0.025	1.3 ± 0.02	1.048 ± 0.017
x1 = 0.8999	1.665 ± 0.025	1.308 ± 0.02	1.058 ± 0.017
x1 = 0.9499	1.677 ± 0.025	1.318 ± 0.02	1.068 ± 0.017

O=[N+]([O-])c1ccccc1 + CCO
viscosity [mPa·s], 101.33 kPa
Details	x1 = 0.0399	x1 = 0.0856	x1 = 0.1382	x1 = 0.1997	x1 = 0.2723	x1 = 0.3595	x1 = 0.4661	x1 = 0.5995	x1 = 0.7711
298.15 K	1.06 ± 0.052	1.048 ± 0.051	1.061 ± 0.052	1.073 ± 0.053	1.116 ± 0.054	1.166 ± 0.056	1.201 ± 0.058	1.317 ± 0.063	1.44 ± 0.068
303.15 K	0.9662 ± 0.048	0.9579 ± 0.048	0.9691 ± 0.048	0.9809 ± 0.049	1.01 ± 0.05	1.068 ± 0.052	1.085 ± 0.053	1.207 ± 0.058	1.312 ± 0.063

C=COCCCC + CCOC(=O)OCC
viscosity [mPa·s], 100 kPa
Details	x2 = 0.1011	x2 = 0.2003	x2 = 0.2975	x2 = 0.4029	x2 = 0.4992	x2 = 0.6014	x2 = 0.6975	x2 = 0.7978	x2 = 0.9004
303.15 K	0.406 ± 0.009	0.429 ± 0.01	0.452 ± 0.01	0.48 ± 0.01	0.509 ± 0.011	0.542 ± 0.012	0.575 ± 0.012	0.614 ± 0.013	0.656 ± 0.014
308.15 K	0.386 ± 0.009	0.406 ± 0.009	0.43 ± 0.009	0.454 ± 0.01	0.483 ± 0.01	0.515 ± 0.011	0.547 ± 0.012	0.583 ± 0.012	0.62 ± 0.013
313.15 K	0.365 ± 0.008	0.383 ± 0.009	0.403 ± 0.009	0.426 ± 0.009	0.451 ± 0.01	0.481 ± 0.01	0.511 ± 0.011	0.545 ± 0.012	0.582 ± 0.012
